Laboratory results: patent publication US20140213502A1, “CHEMICAL MODIFICATION OF APOLIPOPROTEIN MIMETIC PEPTIDES FOR THE PRODUCTION OF THERAPEUTIC AGENTS” (United States Department of Health and Human Services, priority 2011, published 2014)
Where two headings read alike, the source gives them in different places. Bridge positions count the residues as written; N and C are the ends. Square brackets hold non-standard residues; d marks the D form. Ends that are not written are not given here. Peptide text beside a SMILES is read from it. * marks the point of attachment. Myristoyl = CCCCCCCCCCCCCC(=O)*; R8 = C=CCCCCCC[C@@](C)(N)C(=O)O; S5 = C=CCCC[C@](C)(N)C(=O)O

Experiments:
chymotrypsin = experiment: Susceptibility to proteolysis by chymotrypsin, loss of intact peptide by MALDI-TOF MS; assay type: in vitro ADME; settings: for remaining at 24 h, 500 μg/ml: chymotrypsin (isolated protease), read-out: peptide remaining after digestion
Experimental: (§1) FIG. 2 depicts information relating to peptide susceptibility to proteolysis. Peptides […] and […] at a final concentration of 500 μg/ml were incubated for the indicated times with either pepsin (0.5 μg/ml) in 10% acetic acid (pH 2.0) buffer (Panel A) or with chymotrypsin (0.5 μg/ml) in 10 mM NH4HCO3 (pH 7.4) buffer (Panel B), and loss of intact peptide was monitored by MALDI-TOF MS. Results are expressed as normalized area under the curve measurements relative to three internal standards. […] Several potential pepsin and/or chymotrypsin cleavage sites are found within and outside the linker region of the peptides […] and […]. […] and […] (5 mg/ml) were diluted 10× with either 10% acetic acid (pH 2), containing pepsin (0.5 μg/ml final) or in 10 mM NH4HCO3 (pH 7), containing chymotrypsin (0.5 μg/ml final). After incubation at 37° C., aliquots at various time points were removed and dried on a MALDI Anchor Chip target at 45° C. MALDI standards (Bombesin, ACTH 1-17, ACTH 18-39, Somastatin 28, CHCA in 50% ACN, 0.1% TFA) and matrix were added sequentially and allowed to dry between additions. Samples were analyzed on a Bruker AutoFlex III (Bruker Daltonics) in positive ion reflectron mode. Relative protein concentrations were determined from areas under the curve, using the MALDI standards as calibrators.

[1] = Helicity by circular dichroism (CD) spectroscopy; assay type: physicochemical; settings: for helical (helicity by CD spectroscopy): 24° C., aqueous buffer (sodium phosphate pH 7.4), peptide 0.1 mg/mL; for Helicity at 90° C.: heat denaturation, CD spectroscopy
Experimental: FIG. 1 depicts the primary sequence and information regarding the biophysical characterization of illustrative peptides discussed herein. […] X1=(R)-a-(7′-octanyl)Ala; X2=(S)-a-(4′ pentenyl)Ala. […] (dotted line) A10, (solid line) S1A10, (dashed line) S2A10.
FIG. 5 depicts helicity of peptides as measured by CD-spectroscopy at 24° C.: (dotted line) 5A, (dashed line) acyl-5A.
The helical nature of the peptides was determined by circular dichroism spectroscopy. Peptides (0.1 mg/mL) in sodium phosphate buffer (pH 7.4) were loaded into a quartz cuvette (d=0.2 cm path length) and CD spectra from 185 to 240 nm were recorded on a Jasco J715 spectropolarimeter at 24° C. Data were normalized by calculating the mean residue ellipticity (θ). Peptide thermostability was monitored at 220 nm by increasing temperature from 10° to 90° C.

pepsin = experiment: Susceptibility to proteolysis by pepsin, loss of intact peptide by MALDI-TOF MS; assay type: in vitro ADME; settings: for remaining at 24 h, 500 μg/ml: pepsin (isolated protease), pepsin 0.5 μg/ml, pH 2, 37° C., read-out: peptide remaining after digestion
Experimental: as §1

aortic atherosclerosis = experiment: Atherosclerosis progression in a mouse model, en face analysis of aorta; assay type: in vivo; settings: apoE^hypx SR-BI Ko mice, 200 ug/mL in drinking water, high fat (21%) diet 2 weeks
Experimental: FIG. 8 depicts the results of testing the peptide […] on atherosclerosis progression in a mouse model of atherosclerosis. To test the ability of the stapled peptide variant of the last helix of apoA-T containing the long linker, […], it was added to the drinking water (200 ug/mL) of apoE^hypx SR-BI Ko mice. The mice were fed a high fat (21%) diet for 2-weeks and examined for aortic atherosclerosis by en face analysis.

[2] = assay type: physicochemical
Experimental: FIG. 3 depicts Dimyristoyl phosphatidyl choline (DMPC) vesicle solubilization by the indicated peptides. Peptides A10, S1A10 and S2A10 at a final concentration of 33 μg/mL or phosphate buffer saline (PBS) was incubated with DMPC vehicles (200 μg/mL) and monitored for turbidity at 1 min. intervals.
A phospholipid vesicle solubilization assay was undertaken to assess the ability of the peptides to act like detergents. Dimyristoyl phosphatidyl choline (DMPC) vesicles were prepared by resuspension of dried DMPC with PBS and vortexing for 5 min. Changes in light scattering upon peptide addition were monitored at 24° C. every minute for 1 h at 660 nm, with shaking in a Perkin Elmer plate reader.

ABCA1 transporter = target: T1, ABCA1 transporter (Homo sapiens, UniProt O95477); experiment: Cholesterol efflux, BHK cells stably transfected with human ABCA1; assay type: cell-based; settings: 18 h
T1 construct: expressed in transfected cells; host or cells: BHK cells
T1 sequence (O95477 whole entry): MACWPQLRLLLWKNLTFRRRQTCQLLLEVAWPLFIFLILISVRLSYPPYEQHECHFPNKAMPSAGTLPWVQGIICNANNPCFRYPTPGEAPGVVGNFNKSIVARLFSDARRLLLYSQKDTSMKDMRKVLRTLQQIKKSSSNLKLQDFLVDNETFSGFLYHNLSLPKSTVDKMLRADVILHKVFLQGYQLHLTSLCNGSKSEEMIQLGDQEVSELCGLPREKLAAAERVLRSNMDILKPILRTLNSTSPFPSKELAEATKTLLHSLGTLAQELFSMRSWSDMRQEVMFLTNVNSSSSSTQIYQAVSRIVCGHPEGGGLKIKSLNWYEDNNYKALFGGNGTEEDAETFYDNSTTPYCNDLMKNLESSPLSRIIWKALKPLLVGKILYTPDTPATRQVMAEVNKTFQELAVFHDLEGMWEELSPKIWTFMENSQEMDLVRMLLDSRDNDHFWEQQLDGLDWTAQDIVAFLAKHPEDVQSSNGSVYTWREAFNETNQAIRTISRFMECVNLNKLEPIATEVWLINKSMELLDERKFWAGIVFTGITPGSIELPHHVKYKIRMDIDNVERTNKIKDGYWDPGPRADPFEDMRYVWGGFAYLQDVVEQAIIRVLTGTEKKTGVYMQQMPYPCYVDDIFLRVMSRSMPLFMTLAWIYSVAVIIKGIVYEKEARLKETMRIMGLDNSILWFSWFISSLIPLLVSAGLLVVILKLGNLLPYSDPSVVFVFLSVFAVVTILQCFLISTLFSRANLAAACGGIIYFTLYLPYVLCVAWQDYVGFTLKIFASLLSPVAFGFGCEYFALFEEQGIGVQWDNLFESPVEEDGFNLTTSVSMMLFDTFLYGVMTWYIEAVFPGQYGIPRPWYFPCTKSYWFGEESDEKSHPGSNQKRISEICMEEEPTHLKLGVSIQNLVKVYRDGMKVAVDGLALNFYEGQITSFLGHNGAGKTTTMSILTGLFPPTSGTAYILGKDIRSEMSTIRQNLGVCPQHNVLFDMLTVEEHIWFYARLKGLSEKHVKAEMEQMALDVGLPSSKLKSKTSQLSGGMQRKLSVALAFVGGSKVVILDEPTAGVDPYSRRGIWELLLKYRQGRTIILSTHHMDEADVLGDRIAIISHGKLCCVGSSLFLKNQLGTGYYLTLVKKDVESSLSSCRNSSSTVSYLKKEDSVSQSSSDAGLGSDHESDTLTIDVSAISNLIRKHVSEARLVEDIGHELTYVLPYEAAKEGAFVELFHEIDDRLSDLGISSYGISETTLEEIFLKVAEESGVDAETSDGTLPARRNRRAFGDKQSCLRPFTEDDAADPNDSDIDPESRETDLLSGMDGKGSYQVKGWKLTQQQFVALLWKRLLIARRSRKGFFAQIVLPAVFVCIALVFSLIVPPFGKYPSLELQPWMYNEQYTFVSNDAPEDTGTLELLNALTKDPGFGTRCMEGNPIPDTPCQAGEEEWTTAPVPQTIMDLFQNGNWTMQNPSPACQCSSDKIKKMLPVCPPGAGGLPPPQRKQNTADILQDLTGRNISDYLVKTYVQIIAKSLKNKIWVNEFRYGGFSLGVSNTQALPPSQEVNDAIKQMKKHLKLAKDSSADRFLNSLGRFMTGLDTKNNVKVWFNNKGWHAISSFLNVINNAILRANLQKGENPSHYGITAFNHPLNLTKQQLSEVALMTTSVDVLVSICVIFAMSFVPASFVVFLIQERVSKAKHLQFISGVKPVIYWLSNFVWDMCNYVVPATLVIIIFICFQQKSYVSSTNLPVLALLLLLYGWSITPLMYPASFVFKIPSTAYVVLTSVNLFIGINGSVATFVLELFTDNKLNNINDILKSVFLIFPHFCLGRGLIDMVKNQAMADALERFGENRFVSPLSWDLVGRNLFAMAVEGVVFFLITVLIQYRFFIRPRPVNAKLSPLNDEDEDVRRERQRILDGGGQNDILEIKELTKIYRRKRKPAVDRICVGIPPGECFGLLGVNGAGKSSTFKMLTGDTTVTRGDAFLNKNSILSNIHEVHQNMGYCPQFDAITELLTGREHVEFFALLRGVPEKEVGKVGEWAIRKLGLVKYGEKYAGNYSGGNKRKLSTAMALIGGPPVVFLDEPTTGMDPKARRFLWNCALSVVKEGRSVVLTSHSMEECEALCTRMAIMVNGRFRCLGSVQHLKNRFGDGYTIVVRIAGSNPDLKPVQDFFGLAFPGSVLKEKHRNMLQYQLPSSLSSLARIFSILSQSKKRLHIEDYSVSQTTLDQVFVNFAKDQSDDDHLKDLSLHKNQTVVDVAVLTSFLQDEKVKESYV
Experimental: (§2) FIG. 4 depicts the results of testing the effect of the peptides on cholesterol efflux. Peptides A10, S1A10, S2A10, 5A at the indicated concentration were incubated with (Panel A) BHK control cells, (Panel B) ABC-A1 transfected BHK cells, (Panel C) ABC-G1 transfected BHK cells, and (Panel D) SR-B1 transfected BHK cells and monitored for cholesterol efflux. Percent of cholesterol efflux over 18 h is expressed as mean±SD of triplicate determinations.
(§3) The ability of the three peptides and the bi-helical 5A peptide to promote cholesterol efflux was tested on BHK cells stably transfected with human ABCA1, ABCG1 or the human SRBI receptor (FIGS. 5 and 6). Cholesterol efflux studies were performed, as described previously. Control BHK cells and BHK cells stably transfected with either human ABCA1, ABCG1 or SR-BI were radiolabeled with [^3H] cholesterol for 24 h, washed and then treated with the indicated concentration of peptides for 18 h. Percent efflux was calculated by subtracting the radioactive counts in blank medium (alpha-minimal essential media plus 10 μg/ml bovine serum albumin) from the radioactive counts in the presence of a peptide and then dividing the result by the sum of the radioactive counts in the medium plus the cell fraction.

SR-BI receptor = target: T2, SR-BI receptor (Homo sapiens, UniProt Q8WTV0); experiment: Cholesterol efflux, SR-BI transfected BHK cells; assay type: cell-based; settings: 18 h, no phospholipid reconstitution
T2 construct: expressed in transfected cells; host or cells: BHK cells
T2 sequence (Q8WTV0 1-552): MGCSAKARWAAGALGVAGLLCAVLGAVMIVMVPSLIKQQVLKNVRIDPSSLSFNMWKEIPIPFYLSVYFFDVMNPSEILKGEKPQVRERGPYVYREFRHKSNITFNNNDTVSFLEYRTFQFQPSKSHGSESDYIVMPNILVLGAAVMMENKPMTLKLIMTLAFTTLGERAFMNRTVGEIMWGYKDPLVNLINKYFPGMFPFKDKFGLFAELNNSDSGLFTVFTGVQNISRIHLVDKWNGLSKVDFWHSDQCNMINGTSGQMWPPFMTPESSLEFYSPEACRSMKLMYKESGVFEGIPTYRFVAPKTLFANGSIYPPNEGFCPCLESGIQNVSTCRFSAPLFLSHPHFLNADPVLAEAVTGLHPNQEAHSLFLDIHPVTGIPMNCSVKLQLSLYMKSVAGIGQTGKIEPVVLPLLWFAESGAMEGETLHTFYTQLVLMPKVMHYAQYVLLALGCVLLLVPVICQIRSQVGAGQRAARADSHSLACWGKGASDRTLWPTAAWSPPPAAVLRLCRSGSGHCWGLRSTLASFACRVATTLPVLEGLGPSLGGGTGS
Experimental: as §2, §3

ABCG1 transporter = target: T3, ABCG1 transporter (Homo sapiens, UniProt P45844); experiment: Cholesterol efflux, ABCG1 transfected BHK cells; assay type: cell-based; settings: 18 h, no phospholipid reconstitution
T3 construct: expressed in transfected cells; host or cells: BHK cells
Experimental: as §2, §3

[3] = cited from earlier work
[4] = Oligomer formation in aqueous solution; assay type: physicochemical
[5] = Effect of acyl-5A on serum lipid profile of mice; assay type: in vivo; settings: CS7BL/6 mice, 30 mg/kg intravenously in saline, relative to baseline
Experimental: FIG. 7 depicts the results of testing acyl-5A on scrum lipid values in mice. Acyl-5A was injected intravenously in CS7BL/6 mice (n=4) at a dose of 30 mg/kg in saline, and serum was measured for total cholesterol (Panel A), cholesteryl esters (Panel B), and free cholesterol (Panel C) at the indicated, time points. Mean of results are expressed as % of baseline.
In FIG. 7, the results of testing the effect of acyl-5A on the serum lipid profile of mice are shown.

[6] = chymotrypsin 0.5 μg/ml, 10 mM NH4HCO3 (pH 7), 37° C.

## CC(=O)N[C@H](C(=O)N[C@@H](CC(C)C)C(=O)N[C@@H](CCC(=O)O)C(=O)N[C@@H](CO)C(=O)N[C@@H](Cc1ccccc1)C(=O)N[C@@H](CCCCN)C(=O)N[C@H](C(=O)N[C@@H](CO)C(=O)N[C@]1(C)CCCCCCC=CCCCCCC[C@](C)(C(=O)N[C@@H](CCC(=O)O)C(=O)N[C@@H](CCC(=O)O)C(=O)N[C@@H](Cc2ccc(O)cc2)C(=O)N[C@H](C(=O)N[C@@H](CCCCN)C(=O)N[C@@H](CCCCN)C(=O)N[C@@H](CC(C)C)C(=O)N[C@@H](CC(N)=O)C(=O)N[C@H](C(=O)N[C@@H](CCC(N)=O)C(N)=O)[C@@H](C)O)[C@@H](C)O)NC(=O)[C@H](C)NC(=O)[C@H](CO)NC(=O)[C@H](CC(C)C)NC1=O)C(C)C)C(C)C [S1A10] (Ac-VLESFKVS[R8]LSA[R8]EEYTKKLNTQ-NH2; staple 9-13; N-terminus and C-terminus assumed)
chymotrypsin; [6]
  remaining at 24 h, 500 μg/ml: 0.6%
[1]
  helical (helicity by CD spectroscopy): 62%
  Helicity at 90° C.: 25%
pepsin
  remaining at 24 h, 500 μg/ml: 0.4%

## CC(=O)N[C@H](C(=O)N[C@@H](CC(C)C)C(=O)N[C@@H](CCC(=O)O)C(=O)N[C@@H](CO)C(=O)N[C@@H](Cc1ccccc1)C(=O)N[C@@H](CCCCN)C(=O)N[C@H](C(=O)N[C@@H](CO)C(=O)N[C@@]1(C)CCCC=CCCCCCC[C@](C)(C(=O)N[C@H](C(=O)N[C@@H](CCCCN)C(=O)N[C@@H](CCCCN)C(=O)N[C@@H](CC(C)C)C(=O)N[C@@H](CC(N)=O)C(=O)N[C@H](C(=O)N[C@@H](CCC(N)=O)C(N)=O)[C@@H](C)O)[C@@H](C)O)NC(=O)[C@H](CCC(=O)O)NC(=O)[C@H](CCC(=O)O)NC(=O)[C@H](CC(C)C)NC(=O)[C@H](C)NC(=O)[C@H](CO)NC(=O)[C@H](CC(C)C)NC1=O)C(C)C)C(C)C [S2A10] (Ac-VLESFKVS[S5]LSALEE[R8]TKKLNTQ-NH2; staple 9-16; N-terminus and C-terminus assumed)
Aortic atherosclerosis
  decrease in % area coverage by atherosclerotic plaques: > 2 fold
chymotrypsin; [6]
  resistance to proteolysis by chymotrypsin (in words): less sensitive to chymotrypsin than S1A10
  remaining at 24 h, 500 μg/ml: 3.8%
[1]
  helical (helicity by CD spectroscopy): 97%
  Helicity at 90° C.: 48%
pepsin
  remaining at 24 h, 500 μg/ml: 12.2%

## Ac-VLESFKVSFLSALEEYTKKLNTQ-NH2 [A10, reference compound]
[2]
  DMPC vesicle solubilization (turbidity, in words): some initial solubilization of the DMPC vesicles, but at later time points, the turbidity of the solution increased
chymotrypsin; isolated enzyme chymotrypsin, pH 7
  remaining at 0.5 h, 500 μg/ml: < 5%
ABCA1 transporter
  cholesterol efflux by the ABCA1 transporter (in words): ineffective
SR-BI receptor
  cholesterol efflux (in words): ineffective
[1]
  helical (helicity by CD spectroscopy): 17%
  Helicity at 90° C.: 11%
pepsin; isolated enzyme pepsin, pH 2
  remaining at 0.5 h, 500 μg/ml: < 5%
ABCG1 transporter
  cholesterol efflux (in words): ineffective

## apoA-I: the main protein in High Density Lipoprotein (HDL)
[3]; associated with lipids
  helical: over 80%
[3]; lipid-free state
  helical: about 20%

## myrstic acid GGGDWLKAFYDKVAEKLKEAFPDWAKAAYDKAAEKAKEAA (Myristoyl-GGGDWLKAFYDKVAEKLKEAFPDWAKAAYDKAAEKAKEAA) [acyl-5A]
[4]
  peptides per complex (oligomer): approximately 10 peptides per complex
[5]
  increase in serum total cholesterol: approximately 20%
[5]; found primarily on HDL
  increase in serum free cholesterol: > 2 fold
[1]
  helical (helicity by CD spectroscopy): 36.7%
